Measured values from US10792282B2, “Protein kinase C inhibitors and uses thereof” (Rigel Pharmaceuticals, Inc., priority 2013, dated 2020).
Where two headings read alike, the source gives them in different places.

Test system: PKC mediated IL-2 production
Assay: IL-2 ELISA, human primary T cell, anti CD3+CD28+ (whole cell functional assay)
Type: cell-based
Method: Human primary T cells were prepared as follows. Fresh PBMC's from All Cells (Cat # PB002) were re-suspended in RPMI (RPMI-1640 with L-Glutamine; Mediatech, Inc., Herndon Va., cat. #10-040-CM) with 10% FBS and seeded into flasks and incubated at 37° C. for 2 hours to allow the monocytes to adhere. The non-adherent cells were then centrifuged and re-suspended in RPMI medium containing 40 U/ml IL2 and seeded into a flask pre-coated with 1 μg/ml aCD3 and 5 ug/ml aCD28 (Anti-Human CD3, BD Pharmingen Catalog #555336, Anti-Human CD28, Beckman Coulter Catalog # IM1376). The cells were stimulated for 3-4 days, then transferred to a fresh flask and maintained in RPMI (RPMI-1640 with L-Glutamine; Mediatech, Inc., Herndon Va., cat. #10-040-CM) with 10% FBS and 40 U/ml IL-2.
(§1) Human primary T cells (100,000 cells per well) were pre-incubated with or without test compound in RPMI-1640 with L-Glutamine and 10% FBS for 1 hour at 37° C. Cells were then stimulated by transferring them to round-bottom 96-well plates pre-coated with 1 μg/ml αCD3 and 5 μg/ml αCD28. For counter assay, cells were instead stimulated by adding 8× stock solutions of PMA and ionomycin in RPMI-1640 with L-Glutamine and 10% FBS (for final concentrations of 0.5 ng/ml PMA and 0.1 μM ionomycin, both from Calbiochem). Cells were incubated at 37° C. for 24 hours before 100 μL supernatants were harvested for quantification of IL-2 by ELISA using Human IL-2 Duoset ELISA Kit from R and D Systems, Cat. # DY202E.
Compounds 1-90 were tested in a whole cell functional assay for PKC mediated IL-2 production as follows. Human primary T cell isolation and culture: Human primary T cells were prepared as follows. Whole blood was obtained from a healthy volunteer, mixed 1:1 with PBS, layered on to Ficoll Hypaque (Amersham Pharmacia Biotech, Piscataway, N.J., Catalog #17-1440-03) in 2:1 blood/PBS:ficoll ratio and centrifuged for 30 minutes at 4° C. at 1750 rpm. The cells at the serum: ficoll interface were recovered and washed twice with 5 volumes of PBS. These freshly isolated human peripheral blood mononuclear cells were cultured in Yssel's medium containing 40 U/ml IL2 in a flask pre-coated with 1 μg/ml αCD3 and 5 μg/ml αCD28 (Anti-Human CD3, BD Pharmingen Catalog #555336, Anti-Human CD28, Beckman Coulter Catalog # IM1376). The cells were stimulated for 3-4 days, then transferred to a fresh flask and maintained in RPMI (RPMI-1640 with L-Glutamine; Mediatech, Inc., Herndon Va., cat. #10-040-CM) with 10% FBS and 40 U/ml IL-2. The primary T-cells were then washed twice with PBS to remove the IL-2.
as §1, with “Primary T cell stimulation and IL2 ELISA: Human primary” for “Human primary”, “compound in Yssel's medium for 1” for “compound in RPMI-1640 with L-Glutamine and 10% FBS for 1”, “ionomycin in Yssels (for final” for “ionomycin in RPMI-1640 with L-Glutamine and 10% FBS (for final”, “and 0.1 uM ionomycin, both” for “and 0.1 μM ionomycin, both”

[1] = Homo sapiens, T-cell, 24 h, IL-2 production, human primary T cells stimulated with αCD3 and αCD28, 24 hours, IL-2 by ELISA, read-out: EC50
[2] = Homo sapiens, T-cell, human primary T cells stimulated with αCD3 and αCD28, IL-2 by ELISA, read-out: EC50 (blocked IL-2 production)
[3] = IL-2 production, human primary T cells stimulated with αCD3 and αCD28, 24 hours, IL-2 by ELISA, read-out: EC50

Structure (SMILES)	EC50 [1] [µM]	EC50 [2] [µM]	EC50 [3] [µM]
CC(=O)N(C)c1cc(Nc2ncc(F)c(NC3CC(C)(C)N4CCCC4C3C)n2)c(F)cc1C1CC1 (stereo not shown) [Compound 73]	–	–	< 0.5
Cn1nnn(-c2cc(Nc3ncc(F)c(N[C@H]4C[C@@H]5CC(F)(F)CN5C(C)(C)C4)n3)c(F)cc2C2CC2)c1=O [Compound 42, 1-(5-(4-((7S,8aR)-2,2-difluoro-octahydro-5,5-dimethylindolizin-7-ylamino)-5-fluoropyrimidin-2-ylamino)-2-cyclopropyl-4-fluorophenyl)-4-methyl-1H-tetrazol-5(4H)-one]	< 10	< 10	–
Cn1nnn(-c2cc(Nc3ncc(F)c(NC4CC5CCCN5C(C)(C)C4)n3)ccc2O[C@H]2CCOC2)c1=O (stereo partly drawn) [Compound 49, 1-(2-((S)-tetrahydrofuran-3-yloxy)-5-(5-fluoro-4-(octahydro-5,5-dimethylindolizin-7-ylamino)pyrimidin-2-ylamino)phenyl)-4-methyl-1H-tetrazol-5(4H)-one]	< 0.1	< 10	–
Cn1nnn(-c2cc(Nc3ncc(F)c(N[C@@H]4C[C@@H]5CCCN5C(C)(C)C4)n3)ccc2O[C@@H]2CCOC2)c1=O [Compound 48, 1-(2-((R)-tetrahydrofuran-3-yloxy)-5-(5-fluoro-4-(octahydro-5,5-dimethylindolizin-7-ylamino)pyrimidin-2-ylamino)phenyl)-4-methyl-1H-tetrazol-5(4H)-one]	< 0.1	< 10	–
Cn1nnn(-c2cc(Nc3ncc(F)c(NC4CC5CCCN5C(C)(C)C4)n3)ccc2OC2COC2)c1=O (racemic) [Compound 38, 1-(5-(5-fluoro-4-(octahydro-5,5-dimethylindolizin-7-ylamino)pyrimidin-2-ylamino)-2-(oxetan-3-yloxy)phenyl)-4-methyl-1H-tetrazol-5(4H)-one]	–	–	< 0.5
Cn1nnn(-c2cc(Nc3ncc(F)c(N[C@@H]4C[C@@H]5CC(F)(F)CN5C(C)(C)C4)n3)c(F)cc2C2CC2)c1=O [Compound 45, 1-(5-(4-((7R,8aR)-2,2-difluoro-octahydro-5,5-dimethylindolizin-7-ylamino)-5-fluoropyrimidin-2-ylamino)-2-cyclopropyl-4-fluorophenyl)-4-methyl-1H-tetrazol-5(4H)-one]	< 10	< 10	–
Cn1nnn(-c2cc(Nc3ncc(F)c(NC4CCN5C(CCC5(C)C)C4)n3)c(F)cc2C2CC2)c1=O (stereo not shown) [Compound 26]	< 10	< 10	–
Cc1ccc(Nc2ncc(F)c(N[C@H]3C[C@@H]4CC(F)(F)CN4C(C)(C)C3)n2)cc1C#N [Compound 44, (4-((7S,8aR)-2,2-difluoro-octahydro-5,5-dimethylindolizin-7-ylamino)-5-fluoropyrimidin-2-ylamino)-2-methylbenzonitrile]	< 10	< 10	–
CC1C(Nc2nc(Nc3cc(OC(F)F)c(C4CC4)cc3F)ncc2F)CC(C)(C)N2CCCC12 (stereo not shown) [Compound 75]	–	–	< 0.5
Cn1nnn(-c2cc(Nc3ncc(F)c(N[C@@H]4C[C@@H]5CCCN5C(C)(C)C4)n3)ccc2O[C@H]2CCOC2)c1=O [Compound 50, 1-(2-((S)-tetrahydrofuran-3-yloxy)-5-(5-fluoro-4-(octahydro-5,5-dimethylindolizin-7-ylamino)pyrimidin-2-ylamino)phenyl)-4-methyl-1H-tetrazol-5(4H)-one]	< 0.1	< 10	–
Cn1nnn(-c2cc(Nc3ncc(F)c(N[C@@H]4C[C@@H]5C[C@@H](F)CN5C(C)(C)C4)n3)c(F)cc2C2CC2)c1=O [Compound 64, 1-(5-(4-((2R,7R,8aR)-2-fluoro-octahydro-5,5-dimethylindolizin-7-ylamino)-5-fluoropyrimidin-2-ylamino)-2-cyclopropyl-4-fluorophenyl)-4-methyl-1H-tetrazol-5(4H)-one]	< 0.5	< 10	–

The remaining lines, values ahead:

EC50 [1] [µM]	EC50 [2] [µM]	EC50 [3] [µM]	Structure (SMILES)
< 0.1	< 10	–	Cn1nnn(-c2cc(Nc3ncc(C#N)c(N[C@@H]4C[C@@H]5CCCN5C(C)(C)C4)n3)ccc2OC(C)(C)CO)c1=O [Compound 83, 4-((7R,8aS)-octahydro-5,5-dimethylindolizin-7-ylamino)-2-(4-(1-hydroxy-2-methylpropan-2-yloxy)-3-(4,5-dihydro-4-methyl-5-oxotetrazol-1-yl)phenylamino)pyrimidine-5-carbonitrile]
< 10	< 10	–	Cn1nnn(-c2cc(Nc3ncc(F)c(N[C@@H]4C[C@@H]5CCC(=O)N5C(C)(C)C4)n3)c(F)cc2C2CC2)c1=O (racemic) [Compound 31, 1-(5-(5-fluoro-4-(hexahydro-5,5-dimethylindolizin-3(5H)-one-7-ylamino)pyrimidin-2-ylamino)-2-cyclopropyl-4-fluorophenyl)-4-methyl-1H-tetrazol-5(4H)-one]
< 10	< 10	–	CC1(C)C[C@@H](Nc2nc(Nc3cc(-n4cnnn4)c(C4CC4)cc3F)ncc2F)C[C@@H]2CC(F)(F)CN21 [Compound 43, N^2-(4-cyclopropyl-2-fluoro-5-(1H-tetrazol-1-yl)phenyl)-5-fluoro-N^4-((7S,8aR)-2,2-difluoro-octahydro-5,5-dimethylindolizin-7-yl)pyrimidine-2,4-diamine]
–	–	< 0.5	CC1(C)CC(Nc2nc(Nc3ccc(O[C@H]4CCOC4)c(C#N)c3)ncc2F)CC2CCCN21 (single isomer, unassigned) [Compound 62]
< 0.5	< 10	–	CC1(C)CC(Nc2nc(Nc3ccc(OC4COC4)c(C#N)c3)ncc2F)CC2CCCN21 (single isomer, unassigned) [Compound 63, 5-(5-fluoro-4-(octahydro-5,5-dimethylindolizin-7-ylamino)pyrimidin-2-ylamino)-2-(oxetan-3-yloxy)benzonitrile]
< 10	< 10	–	Cn1nnn(-c2cc(Nc3ncc(F)c(N[C@H]4C[C@@H]5C[C@@H](F)CN5C(C)(C)C4)n3)c(F)cc2C2CC2)c1=O [Compound 65, 1-(5-(4-((2R,7S,8aR)-2-fluoro-octahydro-5,5-dimethylindolizin-7-ylamino)-5-fluoropyrimidin-2-ylamino)-2-cyclopropyl-4-fluorophenyl)-4-methyl-1H-tetrazol-5(4H)-one]
–	–	< 1	COc1cc(Nc2ncc(F)c(NC3CC4CCCN4C(C)(C)C3)n2)cc(-n2nnnc2C)c1 (stereo not shown) [Compound 12, (R/S, S/R, R/R, S/S)-5-fluoro-N4-(octahydro-5,5-dimethylindolizin-7-yl)N2-(3-methoxy-5-(5-methyl-1H-tetrazol-1-yl)phenyl)pyrimidine-2,4-diamine]
< 0.1	< 10	–	Cn1nnn(-c2cc(Nc3ncc(F)c(N[C@@H]4C[C@@H]5CCCN5C(C)(C)C4)n3)ccc2OC(C)(C)CO)c1=O [Compound 86, 1-(2-(1-hydroxy-2-methylpropan-2-yloxy)-5-(4-((7R,8aS)-octahydro-5,5-dimethylindolizin-7-ylamino)-5-fluoropyrimidin-2-ylamino)phenyl)-4-methyl-1H-tetrazol-5(4H)-one]
–	< 10	< 10	CC1(C)CC(Nc2nc(Nc3ccc(O[C@@H]4CCOC4)c(C#N)c3)ncc2F)CC2CCCN21 (single isomer, unassigned) [Compound 58]
< 1	< 10	–	CC1(C)C[C@H](Nc2nc(Nc3cc(S(F)(F)(F)(F)F)ccc3F)ncc2F)C[C@@H]2CCCN21 [Compound 71]
